Source: ChEMBL document CHEMBL1155026, “Biaryl and heteroaryl derivatives of SCH 58261 as potent and selective adenosine A2A receptor antagonists” (Bioorg Med Chem Lett, 2008)
Converted amounts (≈) assume the structure as drawn.

Key:
[1] = AUC (0 to 6 hrs) in rat at 3 mg/kg, po; format: ADME, organism-based; design: time < 6 hr, dose 3 mg/kg, route oral; conditions: plasma
[2] = molecular target: Adenosine receptor A2a (Homo sapiens, UniProt P29274)
Description: Antagonist activity at human adenosine A2A receptor

[3] = Kinetic solubility of compound at pH 7.4 by nephelometry; format: physicochemical; conditions: buffer
[4] = test system: Rattus norvegicus; assay: Inhibition of haloperidol-induced catalepsy in rat at 3 mg/kg, po after 4 hrs; format: functional
[5] = test system: Rattus norvegicus; assay: Inhibition of haloperidol-induced catalepsy in rat at 3 mg/kg, po after 1 hr; format: functional
[6] = test system: Rattus norvegicus; assay: Inhibition of haloperidol-induced catalepsy in rat at 1 or 3 mg/kg, po after 4 hrs; format: functional
[7] = test system: Rattus norvegicus; assay: Inhibition of haloperidol-induced catalepsy in rat at 1 or 3 mg/kg, po after 1 hr; format: functional
[8] = test system: Rattus norvegicus; assay: Inhibition of haloperidol-induced catalepsy in rat at 1 mg/kg, po after 4 hrs; format: functional
[9] = test system: Rattus norvegicus; assay: Inhibition of haloperidol-induced catalepsy in rat at 1 mg/kg, po after 1 hr; format: functional

Sequence of Adenosine receptor A2a (P29274 whole entry): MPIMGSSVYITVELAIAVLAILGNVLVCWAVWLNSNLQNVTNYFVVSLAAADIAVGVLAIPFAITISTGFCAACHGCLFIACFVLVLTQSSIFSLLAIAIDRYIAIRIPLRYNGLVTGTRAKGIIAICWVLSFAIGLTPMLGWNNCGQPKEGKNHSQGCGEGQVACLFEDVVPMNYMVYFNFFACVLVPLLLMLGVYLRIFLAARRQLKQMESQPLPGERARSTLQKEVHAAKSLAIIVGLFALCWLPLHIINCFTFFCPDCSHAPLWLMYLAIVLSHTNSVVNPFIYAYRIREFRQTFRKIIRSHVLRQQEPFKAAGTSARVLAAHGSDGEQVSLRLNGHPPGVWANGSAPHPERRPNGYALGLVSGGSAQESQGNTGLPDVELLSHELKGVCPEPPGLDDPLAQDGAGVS

AUC(0-t) at 6 h [1] [ng·h/mL] | SMILES | Ki [2] [nM] | solubility kinetic [3] [µM] | inhibition in vivo at 3 mg/kg [4] [%] | inhibition in vivo at 3 mg/kg [5] [%] | inhibition in vivo at 3 mg/kg [6] [%] | inhibition in vivo at 3 mg/kg [7] [%] | inhibition in vivo at 1 mg/kg [8] [%] | inhibition in vivo at 1 mg/kg [9] [%]
 | COCCOC(C)c1ccc2cc(CCn3ncc4c3nc(N)n3nc(-c5ccco5)nc43)ccc2n1 (stereo not given) | 1.5 |  |  |  |  |  |  | 
656 | Nc1nc2c(cnn2CCc2ccc3nc(CN4CCOCC4)ccc3c2)c2nc(-c3ccco3)nn12 | 2.3 |  | 0 | 0 |  |  |  | 
67 | Nc1nc2c(cnn2CCc2ccc(-c3ccc(OC(F)(F)F)cc3)cc2)c2nc(-c3ccco3)nn12 | 7.8 | < 5 |  |  | 0 | 20 |  | 
 | COc1ccc(-c2ccc(CCn3ncc4c3nc(N)n3nc(-c5ccco5)nc43)cc2)cn1 | 1.9 | < 5 | 0 |  |  |  |  | 
450 | CCc1ccc2cc(CCn3ncc4c3nc(N)n3nc(-c5ccco5)nc43)ccc2n1 | 2.7 | < 2.5 | 38 | 43 |  |  |  | 
 | Nc1nc2c(cnn2CCc2ccc(-c3ccccc3)cc2)c2nc(-c3ccco3)nn12 | 1.1 |  |  |  |  |  |  | 
 | Nc1nc2c(cnn2CCc2ccc3nc(C(=O)N4CCOCC4)ccc3c2)c2nc(-c3ccco3)nn12 | 1.6 | 100 (≈ 51 µg/mL) | 13 | 23 |  |  |  | 
 | Nc1nc2c(cnn2CCc2ccc(-c3cccnc3)cn2)c2nc(-c3ccco3)nn12 | 11.4 |  |  |  |  |  |  | 
 | Nc1nc2c(cnn2CCc2cccc(-c3cccnc3)c2)c2nc(-c3ccco3)nn12 | 5.5 |  |  |  |  |  |  | 
351 | Nc1nc2c(cnn2CCc2ccc(-c3cccnc3)cc2)c2nc(-c3ccco3)nn12 | 1.5 | < 4 |  |  |  |  | 25 | 40
1400 | Cc1ccc2cc(CCn3ncc4c3nc(N)n3nc(-c5ccco5)nc43)ccc2n1 | 2.4 | 6 (≈ 2.46 µg/mL) | 38 | 86 |  |  |  | 
 | COc1ccc(-c2ccc(CCn3ncc4c3nc(N)n3nc(-c5ccco5)nc43)cc2)cc1 | 0.5 | < 5 |  |  |  |  | 5 | 30

SMILES | AUC(0-t) at 6 h [1] [ng·h/mL] | Ki [2] [nM] | solubility kinetic [3] [µM] | inhibition in vivo at 3 mg/kg [4] [%] | inhibition in vivo at 3 mg/kg [5] [%] | inhibition in vivo at 3 mg/kg [6] [%] | inhibition in vivo at 3 mg/kg [7] [%] | inhibition in vivo at 1 mg/kg [8] [%] | inhibition in vivo at 1 mg/kg [9] [%]
Nc1nc2c(cnn2CCc2ccc3nc(N4CCOCC4)ccc3c2)c2nc(-c3ccco3)nn12 | 6 | 1.8 |  |  |  |  |  |  | 
Nc1nc2c(cnn2CCc2ccc(-c3cnccn3)cc2)c2nc(-c3ccco3)nn12 | 114 | 0.9 | < 4 | 3 |  |  |  |  | 
CC(c1ccc2cc(CCn3ncc4c3nc(N)n3nc(-c5ccco5)nc43)ccc2n1)N1CCOCC1 (stereo not given) | 7490 | 1.3 | 100 (≈ 51 µg/mL) | 13 | 28 |  |  |  | 
Cc1ccc(-c2ccc(CCn3ncc4c3nc(N)n3nc(-c5ccco5)nc43)cc2)cn1 | 199 | 0.6 | < 5 |  |  | 25 | 60 |  | 
